Experimental data as given in ChEMBL document CHEMBL5055616, “Discovery of Acyl-sulfonamide Nav1.7 Inhibitors GDC-0276 and GDC-0310” (J Med Chem, 2021).
Converted amounts (≈) assume the structure as drawn. Blank lines part the entries; values can stand above or below the compound they belong to.

Experiments:
[1] = Lipophilicity, logD of the compound at pH 7.4 by shake flask assay based LC-MS/MS analysis; format: physicochemical; settings: buffer
[2] = Metabolic stability in human hepatocytes assessed as intrinsic clearance at 1 uM measured upto 3 hrs by LC-MS/MS analysis; format: ADME, cell-based, Hepatocyte; settings: read-out: CLH
[3] = Metabolic stability in human liver microsomes assessed as intrinsic clearance at 1 uM measured upto 60 mins in presence of NADPH by LC-MS/MS analysis; format: ADME, Microsome; settings: read-out: CLH
[4] = species: Homo sapiens; assay: Selectivity index, ratio of IC50 for human Nav1.5 expressed in HEK293 cells to IC50 for human Nav1.7 expressed in HEK293 cells; format: cell-based
[5] = biological target: Sodium channel protein type 5 subunit alpha (Homo sapiens, UniProt Q14524); assay: Inhibition of human Nav1.5 expressed in HEK293 cells incubated for 1 hr in presence of veratridine and anthropleurin-C by sodium influx assay; format: cell-based
Chain of Sodium channel protein type 5 subunit alpha (Q14524 whole entry): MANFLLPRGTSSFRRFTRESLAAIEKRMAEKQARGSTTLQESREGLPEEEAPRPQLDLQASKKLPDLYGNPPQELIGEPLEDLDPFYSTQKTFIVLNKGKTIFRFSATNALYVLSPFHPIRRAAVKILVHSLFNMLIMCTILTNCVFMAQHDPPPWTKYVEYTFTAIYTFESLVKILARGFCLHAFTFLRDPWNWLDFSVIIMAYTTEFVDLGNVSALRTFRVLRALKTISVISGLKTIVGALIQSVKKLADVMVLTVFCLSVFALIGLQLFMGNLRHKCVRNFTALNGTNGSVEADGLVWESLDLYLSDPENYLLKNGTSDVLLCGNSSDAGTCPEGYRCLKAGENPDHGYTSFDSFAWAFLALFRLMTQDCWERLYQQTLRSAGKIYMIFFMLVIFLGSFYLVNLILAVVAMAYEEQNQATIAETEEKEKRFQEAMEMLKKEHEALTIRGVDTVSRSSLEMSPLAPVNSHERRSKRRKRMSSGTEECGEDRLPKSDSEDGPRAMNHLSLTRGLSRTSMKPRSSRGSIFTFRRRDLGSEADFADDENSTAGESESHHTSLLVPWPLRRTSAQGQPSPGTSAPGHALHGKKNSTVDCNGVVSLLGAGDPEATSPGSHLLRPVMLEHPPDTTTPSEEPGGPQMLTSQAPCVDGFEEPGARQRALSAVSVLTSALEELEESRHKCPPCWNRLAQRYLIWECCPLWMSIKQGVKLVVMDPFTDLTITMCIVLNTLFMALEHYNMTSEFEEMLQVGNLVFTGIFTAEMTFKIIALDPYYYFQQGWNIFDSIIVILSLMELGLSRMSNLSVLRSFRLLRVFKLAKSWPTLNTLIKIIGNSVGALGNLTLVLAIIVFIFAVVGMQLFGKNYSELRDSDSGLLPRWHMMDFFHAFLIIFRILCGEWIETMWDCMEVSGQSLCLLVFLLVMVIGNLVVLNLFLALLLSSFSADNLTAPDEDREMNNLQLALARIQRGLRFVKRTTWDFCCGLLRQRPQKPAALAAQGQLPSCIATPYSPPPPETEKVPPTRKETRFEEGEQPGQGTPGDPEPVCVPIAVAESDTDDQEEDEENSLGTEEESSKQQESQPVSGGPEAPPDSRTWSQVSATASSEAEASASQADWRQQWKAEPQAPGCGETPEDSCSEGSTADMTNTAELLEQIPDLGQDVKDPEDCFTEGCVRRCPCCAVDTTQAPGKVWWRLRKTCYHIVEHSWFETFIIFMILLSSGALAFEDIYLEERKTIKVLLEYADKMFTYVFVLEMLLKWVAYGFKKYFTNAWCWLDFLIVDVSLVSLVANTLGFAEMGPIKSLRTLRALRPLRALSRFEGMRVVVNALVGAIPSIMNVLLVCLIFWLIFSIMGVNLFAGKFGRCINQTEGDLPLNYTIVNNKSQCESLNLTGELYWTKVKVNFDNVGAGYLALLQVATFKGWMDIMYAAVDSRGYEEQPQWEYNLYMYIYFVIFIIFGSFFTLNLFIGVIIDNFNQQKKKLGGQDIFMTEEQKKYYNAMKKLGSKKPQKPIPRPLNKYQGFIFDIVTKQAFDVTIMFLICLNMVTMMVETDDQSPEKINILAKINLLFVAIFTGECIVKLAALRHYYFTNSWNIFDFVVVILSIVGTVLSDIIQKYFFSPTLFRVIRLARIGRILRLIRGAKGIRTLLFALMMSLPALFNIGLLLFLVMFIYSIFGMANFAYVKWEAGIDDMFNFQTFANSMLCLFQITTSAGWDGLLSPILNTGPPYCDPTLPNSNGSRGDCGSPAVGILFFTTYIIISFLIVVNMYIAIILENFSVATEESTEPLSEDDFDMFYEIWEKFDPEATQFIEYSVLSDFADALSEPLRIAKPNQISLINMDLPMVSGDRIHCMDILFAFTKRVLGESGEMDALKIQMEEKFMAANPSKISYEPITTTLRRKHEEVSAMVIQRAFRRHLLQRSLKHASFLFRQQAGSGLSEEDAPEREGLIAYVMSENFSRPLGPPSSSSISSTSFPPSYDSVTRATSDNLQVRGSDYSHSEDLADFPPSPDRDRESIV

[6] = Kinetic solubility of compound in PBS at pH 7.4; format: physicochemical; settings: read-out: Kinetic_solubility
[7] = Volume of distribution at steady state in Beagle dog at 1 mg/kg, po or 0.5 mg/kg, iv measured upto 24 hrs by LC-MS/MS analysis; format: ADME, organism-based, Canis lupus familiaris; settings: in vivo
[8] = Plasma protein binding in human assessed as unbound fraction at 5 uM after 6 hrs by LC-MS/MS analysis based equilibrium dialysis method; format: ADME, cell-free
[9] = Plasma protein binding in Sprague-Dawley rat assessed as unbound fraction at 5 uM after 6 hrs by LC-MS/MS analysis based equilibrium dialysis method; format: ADME, cell-free
[10] = Plasma protein binding in Beagle dog assessed as unbound fraction at 5 uM after 6 hrs by LC-MS/MS analysis based equilibrium dialysis method; format: ADME, cell-free, Canis lupus familiaris
[11] = Half life in Sprague-Dawley rat at 5 mg/kg, po or 1 mg/kg, iv measured upto 8 hrs by LC-MS/MS analysis; format: ADME, organism-based; settings: in vivo
[12] = Half life in cynomolgus monkey at 2 mg/kg, po or 1 mg/kg, iv measured upto 24 hrs by LC-MS/MS analysis; format: ADME, organism-based, Macaca fascicularis; settings: in vivo
[13] = Volume of distribution at steady state in Sprague-Dawley rat at 5 mg/kg, po or 1 mg/kg, iv measured upto 8 hrs by LC-MS/MS analysis; format: ADME, organism-based; settings: in vivo
[14] = biological target: Sodium channel protein type 2 subunit alpha (Homo sapiens, UniProt Q99250); assay: Inhibition of full length human Nav1.2 expressed in HEK cells by whole cell voltage clamp analysis; format: cell-based
Chain of Sodium channel protein type 2 subunit alpha (Q99250 whole entry): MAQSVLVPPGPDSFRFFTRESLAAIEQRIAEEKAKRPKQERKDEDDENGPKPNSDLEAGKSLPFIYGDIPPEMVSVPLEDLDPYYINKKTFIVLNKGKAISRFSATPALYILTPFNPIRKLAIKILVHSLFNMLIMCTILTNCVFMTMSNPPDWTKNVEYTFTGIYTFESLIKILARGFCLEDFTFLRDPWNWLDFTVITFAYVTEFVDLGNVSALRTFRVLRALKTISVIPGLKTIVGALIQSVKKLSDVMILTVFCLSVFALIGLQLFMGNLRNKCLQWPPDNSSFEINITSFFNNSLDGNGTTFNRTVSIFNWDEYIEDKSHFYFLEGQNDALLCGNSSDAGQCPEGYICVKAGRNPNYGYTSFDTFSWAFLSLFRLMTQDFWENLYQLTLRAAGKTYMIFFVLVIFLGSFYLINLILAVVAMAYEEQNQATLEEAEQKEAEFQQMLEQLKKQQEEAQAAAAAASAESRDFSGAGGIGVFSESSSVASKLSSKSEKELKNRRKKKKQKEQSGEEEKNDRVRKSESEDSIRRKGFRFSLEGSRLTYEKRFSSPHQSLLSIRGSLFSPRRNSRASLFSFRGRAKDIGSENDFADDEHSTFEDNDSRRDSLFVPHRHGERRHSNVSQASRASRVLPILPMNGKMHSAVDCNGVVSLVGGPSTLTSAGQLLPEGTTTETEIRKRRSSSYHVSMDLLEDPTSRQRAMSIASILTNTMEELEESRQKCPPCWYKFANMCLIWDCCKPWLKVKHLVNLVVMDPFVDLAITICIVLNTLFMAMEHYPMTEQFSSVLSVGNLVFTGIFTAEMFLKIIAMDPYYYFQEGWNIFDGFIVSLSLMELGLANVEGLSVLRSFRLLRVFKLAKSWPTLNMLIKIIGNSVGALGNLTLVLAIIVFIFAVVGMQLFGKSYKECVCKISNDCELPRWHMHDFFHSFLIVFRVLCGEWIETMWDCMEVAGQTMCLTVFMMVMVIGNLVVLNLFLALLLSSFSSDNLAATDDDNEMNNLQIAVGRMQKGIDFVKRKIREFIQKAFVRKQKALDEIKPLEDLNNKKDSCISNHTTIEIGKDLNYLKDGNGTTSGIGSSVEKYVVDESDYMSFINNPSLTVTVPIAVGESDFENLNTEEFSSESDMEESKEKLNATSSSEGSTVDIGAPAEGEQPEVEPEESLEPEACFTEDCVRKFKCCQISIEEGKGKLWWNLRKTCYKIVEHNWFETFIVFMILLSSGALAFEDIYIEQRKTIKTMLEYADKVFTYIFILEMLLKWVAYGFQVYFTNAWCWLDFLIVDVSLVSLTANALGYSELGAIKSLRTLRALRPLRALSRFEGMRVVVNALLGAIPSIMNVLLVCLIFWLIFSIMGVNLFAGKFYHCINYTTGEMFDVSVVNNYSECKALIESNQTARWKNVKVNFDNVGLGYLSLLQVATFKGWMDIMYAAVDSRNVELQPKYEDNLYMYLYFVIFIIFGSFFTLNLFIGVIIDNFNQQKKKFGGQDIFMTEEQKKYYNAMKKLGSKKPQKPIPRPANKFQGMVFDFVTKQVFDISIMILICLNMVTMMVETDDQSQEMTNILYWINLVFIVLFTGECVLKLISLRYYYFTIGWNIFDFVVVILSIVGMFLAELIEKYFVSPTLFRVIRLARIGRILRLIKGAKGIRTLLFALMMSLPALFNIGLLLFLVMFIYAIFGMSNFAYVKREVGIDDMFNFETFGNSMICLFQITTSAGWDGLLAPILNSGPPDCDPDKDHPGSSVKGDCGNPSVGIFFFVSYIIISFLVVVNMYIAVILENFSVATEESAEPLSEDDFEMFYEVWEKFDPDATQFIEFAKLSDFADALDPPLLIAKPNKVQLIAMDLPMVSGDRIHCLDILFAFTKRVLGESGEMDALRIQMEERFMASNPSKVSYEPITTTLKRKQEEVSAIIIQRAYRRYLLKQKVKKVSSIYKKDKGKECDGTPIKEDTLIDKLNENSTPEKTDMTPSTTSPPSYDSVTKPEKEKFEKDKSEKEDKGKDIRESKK

[15] = Plasma protein binding in cynomolgus monkey assessed as unbound fraction at 5 uM after 6 hrs by LC-MS/MS analysis based equilibrium dialysis method; format: ADME, cell-free, Macaca fascicularis
[16] = biological target: Sodium channel protein type 4 subunit alpha (Homo sapiens, UniProt P35499); assay: Inhibition of full length human Nav1.4 expressed in HEK cells by whole cell voltage clamp analysis; format: cell-based
[17] = biological target: Cytochrome P450 3A4 (Homo sapiens, UniProt P08684); assay: Inhibition of CYP3A4 (unknown origin); format: ADME
Chain of Cytochrome P450 3A4 (P08684 whole entry): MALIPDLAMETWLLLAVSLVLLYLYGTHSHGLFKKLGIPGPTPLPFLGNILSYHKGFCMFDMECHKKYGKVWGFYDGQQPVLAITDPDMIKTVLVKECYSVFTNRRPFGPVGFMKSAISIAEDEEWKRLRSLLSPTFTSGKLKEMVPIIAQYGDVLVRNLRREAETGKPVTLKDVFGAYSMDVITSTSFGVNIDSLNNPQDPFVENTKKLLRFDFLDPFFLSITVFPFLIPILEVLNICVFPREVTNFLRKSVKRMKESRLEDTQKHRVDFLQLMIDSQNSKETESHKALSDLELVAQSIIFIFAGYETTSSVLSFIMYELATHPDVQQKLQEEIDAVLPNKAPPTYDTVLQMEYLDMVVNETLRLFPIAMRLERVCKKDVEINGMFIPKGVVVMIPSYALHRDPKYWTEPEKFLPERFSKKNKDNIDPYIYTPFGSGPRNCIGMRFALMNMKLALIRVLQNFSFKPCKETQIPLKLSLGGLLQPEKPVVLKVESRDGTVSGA

[18] = Oral bioavailability in cynomolgus monkey at 2 mg/kg measured upto 24 hrs by LC-MS/MS analysis; format: ADME, organism-based, Macaca fascicularis; settings: in vivo
[19] = Apparent permeability across apical to basolateral side in MDCK cells by transwell assay; format: ADME, cell-based, Canis lupus familiaris; settings: dog
[20] = Half life in Beagle dog at 1 mg/kg, po or 0.5 mg/kg, iv measured upto 24 hrs by LC-MS/MS analysis; format: ADME, organism-based, Canis lupus familiaris; settings: in vivo
[21] = Oral bioavailability in Sprague-Dawley rat at 5 mg/kg measured upto 8 hrs by LC-MS/MS analysis; format: ADME, organism-based; settings: in vivo
[22] = test system: Mus musculus; assay: Antinociceptive activity in po dosed FVB hNav1.7 transgenic mouse model of inherited erythromelalgia harboring I848T mutation assessed as reduction in number of nociceptive aconitine injected after compound administration; format: functional, organism-based; settings: for EC50: Mus musculus; for fEC50: route po
[23] = Oral bioavailability in Beagle dog at 1 mg/kg measured upto 24 hrs by LC-MS/MS analysis; format: ADME, organism-based, Canis lupus familiaris; settings: in vivo
[24] = Volume of distribution at steady state in cynomolgus monkey at 2 mg/kg, po or 1 mg/kg, iv measured upto 24 hrs by LC-MS/MS analysis; format: ADME, organism-based, Macaca fascicularis; settings: in vivo
[25] = biological target: Sodium channel protein type 8 subunit alpha (Homo sapiens, UniProt Q9UQD0); assay: Inhibition of human Nav1.6 expressed in CHO cells by whole cell voltage clamp analysis; format: cell-based
[26] = biological target: Sodium channel protein type 1 subunit alpha (Homo sapiens, UniProt P35498); assay: Inhibition of full length human Nav1.1 expressed in HEK cells by whole cell voltage clamp analysis; format: cell-based

SMILES: C[C@H](c1cc(Cl)cc(Cl)c1)N1CCC(COc2cc(F)c(C(=O)NS(C)(=O)=O)cc2C2CC2)CC1
logD [1]: 2.2 | CLint scaled at 1 µM [2]: 0.96 L/h/kg | CLint scaled at 1 µM [3]: 1.02 L/h/kg

SMILES: O=C(NS(=O)(=O)N1CCC1)c1cc(C2CC2)c(OCC23CC4CC(CC(C4)C2)C3)cc1F
solubility kinetic [6]: 5.3 µM (≈ 2.45 µg/mL) | Vdss [7]: 0.17 L/kg | Fu [8]: 0.025% | logD [1]: 3.1 | Fu [9]: 0.013% | Fu [10]: 0.005% | half-life [11]: 0.95 h | half-life [12]: 1.6 h | Vdss [13]: 0.38 L/kg | CLint scaled at 1 µM [2]: 0.66 L/h/kg | IC50 [14]: 0.0189 µM | Fu [15]: 0.025% | IC50 [16]: 0.0085 µM | IC50 [17]: > 10 µM | bioavailability [18]: 30% | Papp A→B [19]: 47 nm/s | half-life [20]: 5.5 h | bioavailability [21]: 34% | IC50 [5]: 0.87 µM | CLint scaled at 1 µM [3]: 0.6 L/h/kg | EC50 [22]: 1.7 µM | fEC50 [22]: 0.42 nM | bioavailability [23]: 50% | Vdss [24]: 0.3 L/kg

SMILES: O=C(NS(=O)(=O)C1CC1)c1cc(C2CC2)c(OCC23CC4CC(CC(C4)C2)C3)cc1F
Ratio IC50 [4]: 19 | logD [1]: 3.2 | CLint scaled at 1 µM [2]: 0.96 L/h/kg | IC50 [5]: 0.26 µM | CLint scaled at 1 µM [3]: 1.08 L/h/kg

SMILES: O=C(NS(=O)(=O)C1COC1)c1cc(C2CC2)c(OCC23CC4CC(CC(C4)C2)C3)cc1F
Ratio IC50 [4]: 20 | logD [1]: 3.4 | CLint scaled at 1 µM [2]: 0.402 L/h/kg | IC50 [5]: 0.75 µM | CLint scaled at 1 µM [3]: 0.96 L/h/kg

SMILES: O=C(NS(=O)(=O)N1CCCC1)c1cc(C2CC2)c(OCC23CC4CC(CC(C4)C2)C3)cc1F
Ratio IC50 [4]: 9 | logD [1]: 4.4 | CLint scaled at 1 µM [2]: < 0.372 L/h/kg | IC50 [5]: 1.5 µM | CLint scaled at 1 µM [3]: 0.51 L/h/kg

SMILES: CS(=O)(=O)NC(=O)c1cc(C2CC2)c(OCC23CC4CC(CC(C4)C2)C3)cc1F
logD [1]: 3.3 | CLint scaled at 1 µM [2]: 1.02 L/h/kg | IC50 [5]: 1.1 µM | CLint scaled at 1 µM [3]: 1.14 L/h/kg

SMILES: O=C(NS(=O)(=O)N1CCOCC1)c1cc(C2CC2)c(OCC23CC4CC(CC(C4)C2)C3)cc1F
Ratio IC50 [4]: 1 | logD [1]: 3.8 | CLint scaled at 1 µM [2]: 0.72 L/h/kg | IC50 [5]: 0.11 µM | CLint scaled at 1 µM [3]: 0.66 L/h/kg

SMILES: CS(=O)(=O)NC(=O)c1cc(C2CC2)c(OCC2CCN(C(c3ccccc3)c3ccccc3)CC2)cc1F
Ratio IC50 [4]: 8.9 | logD [1]: 2.7 | CLint scaled at 1 µM [2]: < 0.372 L/h/kg | IC50 [5]: 0.59 µM | CLint scaled at 1 µM [3]: 0.33 L/h/kg

SMILES: CS(=O)(=O)NC(=O)c1cc(C2CC2)c(OCC2CN(C(c3ccccc3)c3ccccc3)C2)cc1F
Ratio IC50 [4]: 48 | logD [1]: 1.8 | CLint scaled at 1 µM [2]: 0.9 L/h/kg | IC50 [5]: 1.1 µM | CLint scaled at 1 µM [3]: 0.402 L/h/kg

Continued, in another order:

logD [1]: 0.3 | CLint scaled at 1 µM [2]: 0.9 L/h/kg | CLint scaled at 1 µM [3]: 0.288 L/h/kg
SMILES: CS(=O)(=O)NC(=O)c1cc(C2CC2)c(OCC2CCN(Cc3ccccc3)CC2)cc1F
Ratio IC50 [4]: > 9.1 | IC50 [5]: > 30 µM

logD [1]: 0.9 | CLint scaled at 1 µM [2]: 0.45 L/h/kg | CLint scaled at 1 µM [3]: 0.516 L/h/kg
SMILES: CS(=O)(=O)NC(=O)c1cc(C2CC2)c(OCC2CCN(C(=O)c3cc(Cl)cc(Cl)c3)CC2)cc1F
Ratio IC50 [4]: 183 | IC50 [5]: 6.4 µM

logD [1]: 2 | CLint scaled at 1 µM [2]: 0.9 L/h/kg | CLint scaled at 1 µM [3]: 0.582 L/h/kg
SMILES: CS(=O)(=O)NC(=O)c1cc(C2CC2)c(OCC2CCN(Cc3cc(Cl)cc(Cl)c3)CC2)cc1F
Ratio IC50 [4]: 58 | IC50 [5]: 7 µM

logD [1]: 3.9 | CLint scaled at 1 µM [2]: < 0.372 L/h/kg | CLint scaled at 1 µM [3]: 0.468 L/h/kg
SMILES: CC(C)(c1cc(Cl)cc(Cl)c1)N1CCC(COc2cc(F)c(C(=O)NS(C)(=O)=O)cc2C2CC2)CC1
Ratio IC50 [4]: 144 | IC50 [5]: 3.9 µM

CLint scaled at 1 µM [2]: 0.9 L/h/kg | CLint scaled at 1 µM [3]: 0.594 L/h/kg
SMILES: CS(=O)(=O)NC(=O)c1cc(C2CC2)c(OCC2CCN(Cc3ccc(Cl)cc3)CC2)cc1F
Ratio IC50 [4]: 667 | IC50 [5]: 27 µM

logD [1]: 0.1
SMILES: CS(=O)(=O)NC(=O)c1cc(C2CC2)c(OCC2CN(Cc3ccccc3)C2)cc1F
IC50 [5]: > 30 µM

solubility kinetic [6]: 52 µM (≈ 28.3 µg/mL) | Vdss [7]: 0.33 L/kg | Fu [8]: 0.196% | logD [1]: 2.3 | IC50 [25]: 0.198 µM | Fu [9]: 0.278% | Fu [10]: 0.157% | half-life [11]: 5 h | half-life [12]: 4.4 h | Vdss [13]: 0.6 L/kg | CLint scaled at 1 µM [2]: < 0.372 L/h/kg | IC50 [14]: 0.038 µM | Fu [15]: 0.129% | IC50 [17]: > 10 µM | bioavailability [18]: 82% | Papp A→B [19]: 110 nm/s | half-life [20]: 46 h | bioavailability [21]: 68% | IC50 [26]: 0.202 µM | CLint scaled at 1 µM [3]: 0.576 L/h/kg | EC50 [22]: 1.1 µM | bioavailability [23]: 100% | Vdss [24]: 0.29 L/kg
SMILES: C[C@@H](c1cc(Cl)cc(Cl)c1)N1CCC(COc2cc(F)c(C(=O)NS(C)(=O)=O)cc2C2CC2)CC1
IC50 [5]: 1.5 µM | fEC50 [22]: 3.5 nM

logD [1]: 1.2 | CLint scaled at 1 µM [3]: 0.594 L/h/kg
SMILES: CS(=O)(=O)NC(=O)c1cc(C2CC2)c(OCC2CCN(Cc3ccc(OC(F)(F)F)cc3)CC2)cc1F
Ratio IC50 [4]: 531 | IC50 [5]: 17 µM
